Reference: patent US11230526B1, “Cylcoalkenyl derivatives useful as agonists of the GPR120 and/or GPR40 receptors” (Janssen Pharmaceutica NV, priority 2018, dated 2022)

What was measured:
C57bl/6J Mice = assay: GPR120 C57bl6 mouse IPGTT; type: in vivo; conditions: male C57bl/6J mice, dosed 30 minutes prior to glucose (IP) 1.5 g/kg
Description: Male, C57bl/6J Mice were ordered in at 8 weeks of age from Jackson Labs. Individual mice weighed anywhere in the range of 25-30 grams on study day. The mice were fasted, with removal of food occurring at 7 am on the morning of the study. Animals were moved into the room at 10:00 am, to give them time to acclimate. Glucose (insulin syringes) was drawn up either the night before or the morning of the study. Glucose was dosed (IP) at 1.5 g/kg at 7.5 ml/kg (20% glucose straight TEKNOVA, 250 ml sterile bottle w/catalogue number G0525). Test compounds were kept spinning and were only drawn into the syringes prior to study commencement. Animals were bled via tail snip to determine basal glucose levels prior to dosing of treatments. An Ascensia BREEZE Blood Glucose Monitoring System by Bayer (using unique 10-test disks) was used for determining glucose levels. The bleeds started at approximately 12:45 pm and dosing started, at 1-minute intervals, immediately after. All groups were dosed 30 minutes prior to glucose administration at a dose volume of 10 ml/kg (the dose volume was calculated separately for each individual animal). Thirty minutes after the first dose animals were bled again for a second baseline, or T=0, and immediately dosed with glucose via an i.p. injection. The exact dose volume for glucose was also calculated separately for each individual animal. Glucose measurements were taken at −30 min prior to compound dose, at t=0 (immediately prior to glucose dose), and at 15, 30, 45, 60, 90 min post glucose dose.
Glucose values were entered into an Excel sheet and graphed in GraphPad Prism. The following were calculated from Prism: Change from −30 to 0 Baseline Glucose, Raw Glucose AUC −30 to 90 min, Delta Glucose AUC −30 to 90 min, Raw Glucose AUC 0 to 90 min, Delta Glucose AUC 0 to 90 min.

[1] = test system: C57B16 mice on a high fat diet; assay: GPR120 DIO mice OGTT screening; type: in vivo, mouse; conditions: DIO mice (60% HFD), glucose AUC −30 to 90 min, % change from vehicle
Description: GPR120 DIO Mice OGTT Screening
18-22 week old, C57B16 mice on a high fat diet (60% HFD) for 12-16 weeks (ave. body weight ˜ 37-41 g) were fasted for 6 hr, with removal of food occurring at 7 am on the morning of the study. The animals were sorted into treatment groups the day before the study by body weight. Animals outside the bounds of ˜30-50 g were left out of the study. The animals had been handled and shammed a total of 5-8 days (1-3 days immediately prior to the study). Glucose (in 1 mL syringes) was drawn up the morning of the study. Test compounds were kept spinning and were only drawn into 1 ml syringes prior to study commencement. Animals were bled via tail snip to determine basal glucose levels prior to dosing of treatments. An Ascensia BREEZE Blood Glucose Monitoring System by Bayer was used for determining glucose levels.
Animals were moved into the testing room at ˜9-11 am, to yield them time to acclimate. The bleeds and dosing started at approximately 1 pm in 30-second intervals per animal. All groups were dosed 30 minutes prior to glucose administration at a dose volume of 10 ml/kg (the dose volume was calculated separately for each individual animal). Test compounds were administered at one or more of the following dosages: 0.1 mg/kg, 0.3 mg/kg, 1 mg/kg, 3 mg/kg and 10 mg/kg.
Thirty minutes after the first dose (with test compound) animals were bled again for a second baseline, or T=0, and immediately dosed with glucose (20% solution, TEKNOVA, 250 ml sterile bottle w/catalogue number G0525) via a PO injection. The exact dose volume for glucose was also calculated separately for each individual animal.
Blood glucose was measured at 15, 30, 45, 60, and 90 minutes post-glucose administration via the snipped tail. If an animal reached a value of “HI”, the upper limit of the glucometer (600 mg/dl) was substituted as the blood glucose value and the study was analyzed as normal with no exclusions. If 50% or more of any treatment group reaches a “HI” value at least once, the study was considered invalid and repeated. Glucose values were typed into an EXCEL spreadsheet where they were used to calculate glucose AUC and delta AUC post-compound and post-glucose. The glucose excursion curves and the different versions of the AUC's were graphed in GraphPad Prism 5.
Note: All statistics completed in this study were completed using the statistical software package GraphPad Prism 5. Standard procedures for analyzing data sets from screening GPR120 compounds in DIO mouse OGTT's were as listed here below. In addition to the statistics that were run using GraphPad Prism 5, Microsoft Excel was used to calculate the percent changes in AUC from vehicle groups as detailed below.
Change from −30 to 0 Baseline Glucose, Raw Glucose AUC −30 to 90 min, Delta Glucose AUC −30 to 90 min, Raw Glucose AUC 0 to 90 min, Delta Glucose AUC 0 to 90 min were analyzed using Column Statistics Analysis, with mean values used to calculate % change from the vehicle mean group, as well as mean, SEM and/or % change from vehicle, where appropriate, and using One-Way ANOVA w/a Tukey Post-Test (Comparing All Pairs of Columns) with each treatment group examined to see if it was statistically significant compared to vehicle (*=P<0.05, **=P<0.01, ***=P<0.001).

Structure (SMILES): Cc1cc(CCC(=O)O)ccc1OCC1=C(c2ccc(Cl)cc2)CCC1 [Compound 62, 3-[4-[[2-(4-chlorophenyl)cyclopenten-1-yl]methoxy]-3-methyl-phenyl]Propanoic Acid]
- C57 IPGTT, Dose Response Results (C57bl/6J Mice; 1 mg/kg): 10%
- C57 IPGTT, Dose Response Results (C57bl/6J Mice; 3 mg/kg): 35%
- C57 IPGTT, Dose Response Results (C57bl/6J Mice; 10 mg/kg): 56%

Structure (SMILES): CCc1ccc(C2=C(COc3ccc(CCC(=O)O)c(F)c3F)CCC2)cc1 [Compound 25, 3-(4-((2-(4-ethylphenyl)cyclopent-1-en-1-yl)methoxy)-2,3-difluorophenyl)Propanoic Acid]
- C57 IPGTT, Dose Response Results (C57bl/6J Mice; 3 mg/kg): 17%
- C57 IPGTT, Dose Response Results (C57bl/6J Mice; 10 mg/kg): 22%
- C57 IPGTT, Dose Response Results (C57bl/6J Mice; 30 mg/kg): 39%

Structure (SMILES): Cc1c(CCC(=O)O)ccc(OCC2=C(c3ccc(Cl)cc3)CC(F)(F)C2)c1C [Compound 137, 3-[4-[[2-(4-chlorophenyl)-4,4-difluoro-cyclopenten-1-yl]methoxy]-2,3-dimethyl-phenyl]Propanoic Acid]
- DIO Lowering (−30 to 90) ([1]; 10 mg/kg): −56%

Structure (SMILES): Cc1c(CCC(=O)O)ccc(OCC2=C(c3ccc(Cl)cc3)CCC(F)(F)C2)c1C [Compound 468, 3-[4-[[2-(4-chlorophenyl)-5,5-difluoro-cyclohexen-1-yl]methoxy]-2,3-dimethyl-phenyl]Propanoic Acid]
- DIO Lowering (−30 to 90) ([1]; 10 mg/kg): −85%

Structure (SMILES): Cc1ccc(C2=C(COc3ccc(CCC(=O)O)c(C)c3C)CCC2)cc1F [Compound 80, 3-(4-((2-(3-fluoro-4-methylphenyl)cyclopent-1-en-1-yl)methoxy)-2,3-dimethylphenyl)Propanoic Acid]
- C57 IPGTT, Dose Response Results (C57bl/6J Mice; 3 mg/kg): 10%
- C57 IPGTT, Dose Response Results (C57bl/6J Mice; 10 mg/kg): 55%
- C57 IPGTT, Dose Response Results (C57bl/6J Mice; 30 mg/kg): 81%
- DIO Lowering (−30 to 90) ([1]; 3 mg/kg): −33%
- DIO Lowering (−30 to 90) ([1]; 10 mg/kg): −60%

Structure (SMILES): Cc1ccc(C2=C(COc3ccc(CCC(=O)O)c(F)c3F)CCC2)cc1 [Compound 94, 3-(2,3-difluoro-4-((2-(p-tolyl)cyclopent-1-en-1-yl)methoxy)phenyl)Propanoic Acid]
- DIO Lowering (−30 to 90) ([1]; 10 mg/kg): −11%

Structure (SMILES): Cc1ccc(C2=C(COc3ccc(CCC(=O)O)c(C)c3C)CCC2)cn1 [Compound 85, 3-(2,3-dimethyl-4-((2-(6-methylpyridin-3-yl)cyclopent-1-en-1-yl)methoxy)phenyl)Propanoic Acid]
- C57 IPGTT, Dose Response Results (C57bl/6J Mice; 1 mg/kg): 13%
- C57 IPGTT, Dose Response Results (C57bl/6J Mice; 3 mg/kg): 24%
- C57 IPGTT, Dose Response Results (C57bl/6J Mice; 10 mg/kg): 19%

Structure (SMILES): Cc1ccc(C2=C(COc3ccc(CCC(=O)O)c(F)c3F)CCCC2)cc1F [Compound 494, 3-[2,3-difluoro-4-[[2-(3-fluoro-4-methyl-phenyl)cyclohexen-1-yl]methoxy]phenyl]Propanoic Acid]
- DIO Lowering (−30 to 90) ([1]; 10 mg/kg): −28%

Structure (SMILES): Cc1cc(CCC(=O)O)ccc1OCC1=C(c2ccc(Cl)cc2)CCCC1 [Compound 483, 3-[4-[[2-(4-chlorophenyl)cyclohexen-1-yl]methoxy]-3-methyl-phenyl]Propanoic Acid]
- C57 IPGTT, Dose Response Results (C57bl/6J Mice; 1 mg/kg): 23%
- C57 IPGTT, Dose Response Results (C57bl/6J Mice; 3 mg/kg): 33%
- C57 IPGTT, Dose Response Results (C57bl/6J Mice; 10 mg/kg): 51%

Structure (SMILES): Cc1ccc(C2=C(COc3ccc(CCC(=O)O)c(C)c3C)CCC2)cc1 [Compound 52, 3-[2,3-dimethyl-4-[[2-(p-tolyl)cyclopenten-1-yl]methoxy]phenyl]Propanoic Acid]
- C57 IPGTT, Dose Response Results (C57bl/6J Mice; 3 mg/kg): 11%
- C57 IPGTT, Dose Response Results (C57bl/6J Mice; 10 mg/kg): 30%
- C57 IPGTT, Dose Response Results (C57bl/6J Mice; 30 mg/kg): 92%
- DIO Lowering (−30 to 90) ([1]; 10 mg/kg): −86%

Structure (SMILES): CCc1ccc(C2=C(COc3ccc(CCC(=O)O)c(C)c3C)CCC2)cc1 [Compound 27, 3-(4-((2-(4-ethylphenyl)cyclopent-1-en-1-yl)methoxy)-2,3-dimethylphenyl)Propanoic Acid]
- C57 IPGTT, Dose Response Results (C57bl/6J Mice; 1 mg/kg): 15%
- C57 IPGTT, Dose Response Results (C57bl/6J Mice; 3 mg/kg): 23%
- C57 IPGTT, Dose Response Results (C57bl/6J Mice; 10 mg/kg): 37%
